Measurements reported in the NIST ThermoML archive (doi:10.1016/j.jct.2018.01.025).
Several values for one entry are separate records, joined by “and”; a condition that tells them apart may be missing. Equal values may be shown once.

Conditions: 101.33 kPa, Liquid; for mass density: Vibrating tube method

CCOS(=O)(=O)[O-].CCn1cc[n+](C)c1 [1-ethyl-3-methylimidazolium ethyl sulfate]
Conditions | viscosity
278.15 K, Concentric cylinders viscometry | 329 mPa·s
283.15 K, Concentric cylinders viscometry | 234.5 mPa·s
288.15 K, Concentric cylinders viscometry | 172.2 mPa·s
293.15 K, Concentric cylinders viscometry | 130.1 mPa·s
298.15 K, Concentric cylinders viscometry | 100 mPa·s
298.52 K, Vibrating wire viscometry | 97.32 mPa·s and 98.21 mPa·s
303.15 K, Concentric cylinders viscometry | 78.66 mPa·s
303.34 K, Vibrating wire viscometry | 76.57 mPa·s
303.38 K, Vibrating wire viscometry | 76.99 mPa·s
303.64 K, Vibrating wire viscometry | 76.57 mPa·s
308.15 K, Concentric cylinders viscometry | 62.99 mPa·s
308.21 K, Vibrating wire viscometry | 61.5 mPa·s
313.15 K, Concentric cylinders viscometry | 51.59 mPa·s
313.23 K, Vibrating wire viscometry | 51.09 mPa·s
313.24 K, Vibrating wire viscometry | 50.47 mPa·s
318.15 K, Concentric cylinders viscometry | 42.36 mPa·s
318.43 K, Vibrating wire viscometry | 41.55 mPa·s
322.6 K, Vibrating wire viscometry | 36.51 mPa·s
323.02 K, Vibrating wire viscometry | 35.9 mPa·s
323.15 K, Concentric cylinders viscometry | 35.43 mPa·s
328.15 K, Concentric cylinders viscometry | 29.98 mPa·s
333.15 K, Concentric cylinders viscometry | 25.64 mPa·s
338.15 K, Concentric cylinders viscometry | 22.13 mPa·s
343.15 K, Concentric cylinders viscometry | 19.27 mPa·s
348.15 K, Concentric cylinders viscometry | 16.91 mPa·s
353.15 K, Concentric cylinders viscometry | 15.03 mPa·s
358.15 K, Concentric cylinders viscometry | 13.3 mPa·s
363.15 K, Concentric cylinders viscometry | 11.9 mPa·s
368.15 K, Concentric cylinders viscometry | 10.71 mPa·s
373.15 K, Concentric cylinders viscometry | 9.69 mPa·s

Conditions | mass density [kg/m3]
278.15 K | 1251.2
283.15 K | 1247.3
288.15 K | 1243.7
293.15 K | 1240.1
298.15 K | 1236.7
303.15 K | 1233.3
308.15 K | 1229.9
313.15 K | 1226.5
318.15 K | 1223.2
323.15 K | 1219.9
328.15 K | 1216.6
333.15 K | 1213.4
338.15 K | 1210.2
343.15 K | 1206.9
348.15 K | 1203.6
353.15 K | 1200.1
358.15 K | 1196.6
363.15 K | 1193.4
368.15 K | 1190.5
373.15 K | 1187.4
